{"source": "patent US6667025B2", "about": "(Mitsubishi Pharma Corporation, priority 1997, dated 2003)", "key": {"[1]": {"system": "skin allograft, WKAH donor and F344 recipients", "type": "in vivo", "text": "Two MHC-incompatible rat strains were selected, WKAH donor (RT1^k) and F344 recipients (RT1^IV1). Full-thickness skin grafts (2.0×2.0 cm square) were transplanted to the lateral thorax of recipients and wrapped with sterile, bactericidal gauze. The chest was then wrapped with an elastic bandage. Five days after transplantation, the wraps were removed and the grafts inspected daily for rejection. Rejection was defined as more than 90% necrosis of graft epithelium."}, "[2]": {"system": "IL-2 mRNA in alloantigen-stimulated splenic T cells", "experiment": "IL-2 mRNA expression in allogeneic mixed lymphocyte culture (PCR)", "type": "cell-based, rat", "conditions": "48 hours", "method": "The housekeeping gene HPRT was used as an internal control in order to compare levels of IL-2 mRNA levels relative to the HPRT mRNA levels, as detailed below.\nAllogeneic mixed lymphocyte culture was carried out by using nylon-nonadherent spleen cells of F344 rat (RT1^1v1) as responder cells and the spleen cells of WKAH rat (RT1^k) pretreated with 40 μg/ml of mitomycin C for 30 min as stimulator cells. […] After culturing for 48 hours, the cells were recovered by centrifugation. The expression of IL-2 mRNA in the cells was determined by a polymerase chain reaction (PCR) method.\nTotal RNA was reverse transcribed in […] of buffer solution containing 10 mmol/L Tris-HCl (pH 8.3),50 mM KCl, 5 mM MgCl2, 1 mM each dNTP (dATP, dGTP, dTTP and dCTP), 60 U RNase inhibitor (Takara Ltd. Tokyo, Japan), 15 U avian myelobalastosis virus reverse transcriptase (Takara Ltd.) and 150 pmol random 9-mers at 30° C. for 10 min and 42° C. for 30 min. Primer sequences for IL-2 and hypoxanthine-guanine phosphoribosyltransferase (HPRT) were taken from the previous report (44).\nThe length in base pairs of the PCR products of IL-2 and HPRT are 351 and 608 bp respectively. […] Fluorescence intensity of the specific bands was visualized by fluorescence image analyzer (FLUOR IMAGER 575®, Molecular Dynamics)."}, "[3]": {"system": "cardiac allograft, WKAH donors and ACI recipients", "experiment": "Heterotopic cardiac allograft survival, MHC-incompatible rat strains", "type": "in vivo"}}}
{"smiles": "C=CC[C@@H]1/C=C(\\C)C[C@H](C)C[C@H](OC)[C@H]2O[C@@](O)(C(=O)C(=O)N3CCCC[C@H]3C(=O)O[C@H](/C(C)=C/[C@@H]3CC[C@@H](O)[C@H](OC)C3)[C@H](C)[C@@H](O)CC1=O)[C@H](C)C[C@@H]2OC", "note": "[TRL, tacrolimus, reference compound]", "values": [{"measurement": "median survival time (MST) of skin graft", "setting": "[1]; 10 mg/kg for 14 days", "result": 22.5, "unit": "days"}, {"measurement": "oral dose that significantly prolonged skin graft survival", "setting": "[1]; oral, WKAH to F344 rats", "result": "≥ 0.3", "unit": "mg/kg"}, {"measurement": "concentration that inhibited IL-2 mRNA expression", "setting": "[2]", "result": "≥ 1", "unit": "nM"}, {"measurement": "induction of long-term cardiac graft survival", "setting": "[3]; even at the highest dose tested", "result": "hardly induced long-term graft survival"}, {"measurement": "dose that significantly prolonged cardiac allograft survival", "setting": "[3]; vs control", "result": "≥ 1", "unit": "mg/kg"}]}
